Measurements reported in a melting point compilation (Tetko et al.; mined from patent text by program, amines drawn as free bases though some values may be those of a salt).

SMILES	melting point [°C]
CCCNC(=O)C1(O)CC(O)C2OC(C)(C)OC2C1 (configuration not stated)	85 to 86
O=[N+]([O-])c1cc(-c2ccoc2)ccc1Nc1cccc(-n2cccc2)c1	129 to 131
COC(=O)CC=C1CCC2C3CCC4=CC(=O)CCC4(C)C3CCC12C (configuration not stated)	149 to 151
COc1ccc2c(c1)C(NC(=O)OCc1ccccc1)C(=O)N2c1ccc(F)cc1 (configuration not stated)	154 to 156
CCOC(=O)CN1C(=O)C(NC(=O)c2ccc3ccccc3c2)C(c2ccc(OC)cc2)Sc2ccccc21 (configuration not stated)	183 to 186
Nc1cc(I)c(-c2cc([N+](=O)[O-])c(N)cc2I)cc1[N+](=O)[O-]	346 to 348
c1cc(COc2ccc(OCc3ccc4ccccc4n3)cc2)cc(OCc2nnn[nH]2)c1	131 to 132
Cc1noc(C)c1COc1ccc(-c2cc(O)c(SCCc3ccccc3)c(=O)o2)cc1	152 to 154
COC(=O)[C@@H]1CCCN1C(=O)c1cccc(O)c1[N+](=O)[O-]	114 to 116
CC[C@@H](NC(=O)N1CC(=O)NCC(Cc2cc(Cl)ccc2OC)C1=O)C(=O)Nc1nnn[nH]1 (some centres not stated)	141 to 142
CN(c1cccc2cc(-c3ncc(CS(C)(=O)=O)s3)[nH]c12)S(=O)(=O)c1cccs1	242 to 243
O=c1ccn(-c2cc3[nH]c(=O)c(=O)[nH]c3cc2[N+](=O)[O-])cc1Cl	> 300
Cc1nc(C(O)(c2nc(C)c(C)s2)C(C)C)sc1C	169 to 171
CCOC(=O)CCCOc1cccc2c1SCCC2	31
CN1CN(c2ccccc2)c2ncccc2C1=O	140 to 141
Cc1cc(Br)cc2ccc(Cl)nc12	114 to 116
Cn1nnnc1-c1cn(C)c2cc(N3CCCCC3)ccc2c1=O	180 to 183
CC12CCC(OC(=O)c3ccc(Cl)cc3)CC1=CCC1C2CCC2(C)C(=NO)CCC12 (configuration not stated)	167 to 170
C/C=C\Cn1c(C(=O)c2cc(C)cc(C)c2)c(CC)c(=O)[nH]c1=O	199 to 200
COCOc1c(OC)cc(C=CC(=O)c2c(OC)cc(OC)c(CC=C(C)C)c2O)cc1OC	128 to 129
Nc1[nH]ncc1-c1cccc(N2CCN(CCO)CC2)c1	40 to 48
N#CN1CCN(c2n[nH]c3ccccc23)CC1	120 to 122
COc1cccc2c1OC(CN1CCC(NC(=O)Nc3ccccc3)CC1)CC2 (configuration not stated)	163
Cc1cc2[nH]c(=O)c3cnccc3n2n1	> 300

SMILES	melting point [°C]
CC(C)n1nc(-c2sc(NC(=O)c3ccc(Cl)cc3)nc2-c2ccccc2)ccc1=O	205 to 206
CCOC1=CC=CC(C=O)C1(OCc1ccccc1)[N+](=O)[O-] (configuration not stated)	110 to 111
ClCc1coc(-c2cc3ccccc3s2)n1	150 to 151
NC(=O)Cc1ccc2[nH]cc(CCN3C(=O)c4ccccc4C3=O)c2c1	191 to 193
CCOC(=O)c1ccc(NC(=O)C=C(c2ccccc2)c2ccc(C)cc2)cc1	122 to 124
COC(=O)c1cc(OC)c(Cl)cc1N	63 to 64
CCCCNC(=O)NS(=O)(=O)c1cccc2c1nnn2C	170 to 173
CCCN(CCCCNc1ncc(Cc2ccncc2)c(=O)[nH]1)c1ccccn1	58 to 60
CCn1ncc2c(Cl)c3ccc(OC)cc3nc21	95 to 98
CCCC(O)(CCC)c1c2c(nn1C)N(c1c(C)cc(C)cc1Cl)CCC2	129 to 130
COC(=O)CCn1cc(C2=C(c3cn(C)c4ccccc34)C(=O)NC2=O)c2ccccc21	209 to 211
Clc1ccc(Nc2nncc3ccccc23)cc1	211
Cc1nnc(-c2ccc3occ(-c4cnn(Cc5ccccc5)c4)c3c2)o1	151 to 152
O=C1Cc2c(ccc3c2OC(CNCc2ccccc2)CC3)N1 (configuration not stated)	128
COc1ccc(COc2cc(Sc3c(Cl)cc(C=O)cc3Cl)ccc2OC)cn1	102 to 104
Cc1c(C(O)c2ccccc2)nc2n1CCc1ccccc1C2OC1CCN(C)CC1 (configuration not stated)	85
COC(=O)C(C#N)=CC(C)=CN(C)C	163 to 164
Cc1nc(CC#N)c2n1-c1ccc(Cl)cc1C(c1ccccc1Cl)=NC2	212 to 214
O=C(c1ccc(F)c(Cc2ccc(=O)[nH]n2)c1)c1c(Cl)cc(Cl)cc1Cl	185
CCCCCCCCCCCC(OO)OOC(CCCCCCCCCCC)OO (configuration not stated)	56 to 58
O=C1c2cc(O)ccc2N(Cc2ccccc2)C2=NCCN12	225 to 227
CC[C@@H]1NC(=O)C[C@@]1(O)C1CC1	87 to 102
CNC(=O)CC1CSC2=C(C(=O)OC(C)C)CCN21 (configuration not stated)	79 to 95
COCc1cc(-c2ncc3[nH]c4cccc(Cc5ccccc5Cl)c4c3c2COC)no1	178 to 180

SMILES	melting point [°C]
Nc1cc(C(=O)NC2CC2)n(-c2nc(Cl)nc3ccoc23)n1	219
CON=C1CCC(N(C)C(=O)c2ccc3nonc3c2)CC1 (configuration not stated)	167 to 168
COC(=O)CC(=O)c1cc(CN2CCOCC2)sc1Cl	67 to 68
O=C1NCCCCC1(Br)Br	156 to 159
COC(=O)CN(C(=O)c1ccc(Cl)cc1)c1ccccc1CCC#N	127 to 128
CC(C)(C)c1nc(C[C@@H]2CC[C@](C)(NCC(=O)N3C[C@@H](F)C[C@H]3C#N)C2(C)C)no1	152 to 154
CCCn1c(=O)n2cnnc2c2c1ncn2C	218
COc1ccc2c(C)c(C)oc2c1C=O	88
CC1CCCCN(C(=O)C2Cc3ccccc3N2c2ccc(=O)n(C)n2)C1 (configuration not stated)	109 to 112
Nc1ccccc1CCc1n[nH]c2c1c(=O)n(-c1ccccc1)c1ncccc21	289 to 291
Nc1c2c(nc3ccc(Br)cc13)CCC2	236 to 238
O=C1Nc2ccccc2C2(c3ccccc3)OCCN12 (configuration not stated)	194
O=CNC1Cc2cc(Br)cc([N+](=O)[O-])c2NC1=O (configuration not stated)	232 to 235
CCOC(=O)CCCCCCCn1c(Cc2ccccc2)nc(-c2ccccc2)c1-c1ccccc1	82 to 83
CC(C)N1CC([N+](=O)[O-])=C(NCC(=O)O)C1=O	180 to 185
COC(=O)CS(=O)(=O)CCCCCCn1nc(-c2ccccc2)c(-c2ccccc2)c1-c1ccccc1	92.5 to 94.5
O=C1NCC(CN2CCCCC2)c2c[nH]c3cccc1c23 (configuration not stated)	119 to 122
CSc1nc(NC(=O)C2([N+](=O)[O-])C=CC=CC2S(N)(=O)=O)nn1C (configuration not stated)	210 to 213
NS(=O)(=O)c1cccc2c1c([N+](=O)[O-])cc1nc(O)c(O)nc12	360
O=C(C(Cl)Cl)N1CCOC1C(Cl)Cl (configuration not stated)	80
Cc1c(CO)c2cnnc(OCc3ccc(F)cc3)c2n1Cc1ccccc1	122 to 124
Cc1cc(O)nn1C(=O)Nc1ccccc1	232 to 234
CCCN(CCC)C(=O)n1cnc(S(=O)CCC)n1 (configuration not stated)	50 to 52

Further lines, results first:

melting point [°C]	SMILES
130 to 132	CC(CN(C)C)Oc1ccc(-c2n[nH]c3ncccc23)cc1 (configuration not stated)
67 to 68	COc1ccc(C(C)=NOCc2ccc([N+](=O)[O-])cc2)cc1F
127 to 129	CCCCOc1ccc(C=CC(=O)NCCN(O)C(N)=O)cc1
100 to 103	Cc1ccc(N)c(-c2nc(C(F)(F)F)cs2)c1
222	N#Cc1ncn2c(C(F)(F)F)cc(-c3cccnc3)nc12
60 to 61	CCOc1c(C2=C(C(C)(C)C)C(C)(C)CO2)oc2ccc(OC)cc12
74 to 75	O=C(c1ccc(Cl)cc1)C(CC1OCCO1)Sc1ccccc1 (configuration not stated)
134 to 135	CCCCCS(=O)(=O)NC(=O)/C=C/c1ccc(OCCOC)cc1Oc1ccc(C(F)(F)F)cc1Cl
30 to 32	CC(C)(C)C=C[C@H](O)c1ccc(C(F)(F)F)cc1
140 to 142	Cc1c(SCCCn2c([N+](=O)[O-])cnc2C)ccnc1CSc1ccncc1
126 to 128	CNCC(CNC(C)=O)c1cccc2ccc(OC)cc12 (configuration not stated)
165 to 167	CC(C)(C)c1cc(CCc2ccccc2NC(=O)NCC(C)(C)c2ccc(Cl)c(Cl)c2)cc(C(C)(C)C)c1O
269 to 271	CCOC(=O)c1cc(/C=C/c2ccc(O)cc2)ccc1O
88	CC(C)(O)[C@H](Cc1ccccc1)NC(=O)C(Cl)(Cl)Cl
193 to 196	OC(Cn1cncn1)(Cn1ncnc1C=Cc1ccc(Cl)cc1)c1ccc(Cl)cc1Cl (configuration not stated)
94.5 to 97	N#CC1(c2ccc(Cl)cc2)CCC(=O)CC1

melting point [°C]	SMILES
125 to 126	CNC(=S)C1=CC(CF)(CF)Oc2ccc(C(F)(F)C(F)(F)C(F)(F)F)cc21
133 to 134	COc1cc(NC(=O)NC(=O)c2c(F)cccc2F)ccc1OC(F)(F)C(F)(F)c1ccc(Cl)cc1
84 to 85	COC(=O)C1Oc2ccccc2CC1CO (configuration not stated)
177 to 178	CC(C)(C)CN(CC(O)C(Cc1ccccc1)NC(=O)C(CC(N)=O)NC(=O)NCc1ccccc1)C(=O)NC(C)(C)C (configuration not stated)
182 to 185	O=C(NC(=O)c1c(F)cccc1F)Nc1ccc(OC(F)(F)C(F)F)c(C(F)(F)F)c1
148 to 150	Cc1c(C)c(N2Cc3cc(Cl)c(Cl)cc3C2)c(C)c2c1OC(C)(C)C2c1ccc(C(C)C)cc1 (configuration not stated)
85 to 90	CCC1(CC)CN(C(C)(C)C)C(=O)C(CC)(CC)N1OC(C)c1ccccc1 (configuration not stated)
126 to 128	O=C(C=Cc1ccc(O)c(O)c1)OCCc1ccccc1
90 to 95	Cc1oncc1C(=O)Nc1ccc(-n2nc(C(F)(F)F)cc2C2CC2)cc1
118 to 120	CN(C)C(=O)Sc1ccc(Br)cc1C=O
105 to 106	CC(C)(C)OC(=O)CON=C(C(=O)O)c1ccco1
104 to 106	CC(C)(C)OC(=O)N1C[C@@H](Oc2ccc(N)cc2)C[C@@H]1C(=O)Nc1cc(C(C)(C)C)c(O)c(C(C)(C)C)c1
193 to 194	O=C(Nc1ccc(Cc2nnn[nH]2)cc1)C(F)(F)C(F)(F)C(F)(F)C(F)(F)C(F)(F)C(F)(F)C(F)(F)F
165 to 166	Cc1oc(-c2ccc(C(F)(F)F)cc2)nc1-c1ccc(-c2cc(Br)c(OCC(=O)O)c(Br)c2)cc1
147	CC(=O)Oc1cc2oc(=O)ccc2cc1C
